Series [1] has as its system β amyloid protein (Aβ) secreted by E35 cells (human glioma H4 cells transfected with APP751 gene). The experiment in a line: Inhibition of production or secretion of β-amyloid protein (Aβ) in E35 cells, sandwich ELISA of the supernatant. Particulars: 24 hours with test compound, compared to DMSO control cells, read-out: Activity (IC50, concentration at which 50% inhibition of Aβ production was observed). It counts as cell-based. On the procedure:
The inhibitory activity against formation of β amyloid protein of the compounds obtained in Examples was tested in the method described bellow.
E35 cells were established by transfecting APP751 gene which is a wild type human β-amyloid protein precursor into human glioma cells (H4 cells).
E35 cells were seeded in 96-well plates and cultured in an incubator of 37° C. by using a Dulbecco's Modified Eagle's Medium containing 10% inactivated fetal bovine serum (10% FBS-DMEM). Twenty-four hours after seeding, a test compound dissolved in DMSO so as to give its concentration to be 2000 times as much as that of the final concentration was added to the medium in an amount of 1/2000 capacity of the culture medium. The cells were cultured for additional twenty-four hours, and then the supernatant was collected. The amount of β amyloid protein (Aβ) secreted in the supernatant was measured by the sandwich enzyme-linked immunosorbent assay (ELISA). Described specifically, a monoclonal antibody 25-1, which recognized Aβ25-35, was immobilized onto a 96-well ELISA plate, followed by the incubation at 4° C. for 16 to 20 hours. After washing with a phosphate buffer (pH 7.4) (PBS), a biotinylated monoclonal antibody MA32-40, which recognized Aβ1-8, was added, and the plate was kept at 4° C. for 2 hours. After the supernatant was removed and the well was washed sufficiently with PBS, alkaline phosphatase-conjugated streptavidin was added to the plate. Absorbance was measured while adding BlouPhos (manufactured by KPL) as a substrate. An amount of Aβ contained in the supernatant was calculated using a calibration curve separately created using Aβ of a known concentration. IC50 of the test compound was presented as the concentration at which 50% inhibition of Aβ production was observed compared to the amount of Aβ of the control cells to which only DMSO was added.
When there is at least 10-times difference between the IC50 and the concentration at which cytotoxicity appears, then the compound is judged as a compound having an inhibitory activity against production or secretion of β amyloid protein.
(In general: An ELISA detects its analyte on a solid surface through an enzyme-linked reagent.)

Bounds are passed on as bounds.

On to `[O-][S+](c1ccc(Cl)cc1)C(c1cc(F)ccc1F)c1ccncc1Cl` (centres unmarked) [Example 56, 3-Chloro-4-[(4-chlorophenylsulfinyl)-(2,5-difluorophenyl)methyl]pyridine], for which the IC50 in series [1] fell in the range of 5 to 50 nM.
`O=S(=O)(c1ccc(Cl)cc1)C(c1cccnc1)c1cc(F)ccc1F` (centres unmarked) [Example 19, 3-[[(4-Chlorophenyl)sulfonyl]-(2,5-difluorophenyl)methyl]pyridine] registered a melting point of 130 to 131 °C. Also, the IC50 in series [1] lay within 50 to 500 nM.
Regarding `CS(=O)(=O)CCNc1cc(C(c2cc(F)ccc2F)S(=O)(=O)c2ccc(Cl)cc2)c(Cl)cn1` (centres unmarked) [Example 176, 5-Chloro-4-[(4-chlorophenylsulfonyl)-(2,5-difluorophenyl)methyl]-2-[(2-methylsulfonylethyl)amino]pyridine], the IC50 in series [1] was under 5 nM.
On the same count and under the same terms, the value for `O=S(=O)(c1ccc(Cl)cc1)C(c1cc(F)ccc1F)c1cc(N2CCC[C@H]2CO)ncc1Cl` (some centres unmarked) [Example 111] was 5 to 50 nM.
As to `Nc1cc(C(c2cc(F)ccc2F)S(=O)(=O)c2ccc(Cl)nc2)c(Cl)cn1` (centres unmarked) [Example 245, [5-Chloro-4-[(6-chloropyridin-3-ylsulfonyl)(2,5-difluorophenyl)methyl]pyridin-2-yl]amine], the melting point fell in the range of 157 to 158 °C. The IC50 in series [1] lay in the range of 5 to 50 nM.
As for `O=C(O)CCc1cc(C(c2cc(F)ccc2F)S(=O)(=O)c2ccc(C(F)(F)F)cc2)c(Cl)cn1` (centres unmarked) [Example 267, 3-[5-Chloro-4-[(2,5-difluorophenyl)(4-trifluoromethylphenylsulfonyl)methyl]pyridin-2-yl]propionic acid], the melting point was in the range of 166 to 167 °C. The IC50 in series [1] lay in the range of 5 to 50 nM.
As for `O=S(=O)(c1ccc(Cl)cc1)C(c1cc(F)ccc1F)C1CCCCC1` (centres unmarked) [Example 1, 2-[[(4-Chlorophenyl)sulfonyl](cyclohexyl)methyl]-1,4-difluorobenzene], the melting point is 107 to 109 °C. The IC50 in series [1] lay in the range of 50 to 500 nM.
Regarding `COc1cc(S(=O)(=O)C(c2cc(F)ccc2F)c2cc(N)ncc2Cl)ccc1Cl` (centres unmarked) [Example 239, [5-Chloro-4-[(4-chloro-3-methoxyphenylsulfonyl)(2,5-difluorophenyl)methyl]pyridin-2-yl]amine], the melting point was in the range of 198 to 200 °C. The IC50 in series [1] fell in the range of 50 to 500 nM.
The corresponding values for `CS(=O)(=O)N(N)c1cc(C(c2cc(F)ccc2F)S(=O)(=O)c2ccc(Cl)cc2)c(Cl)cn1` (centres unmarked) [Example 225, 1-[5-Chloro-4-[(4-chlorophenylsulfonyl)(2,5-difluorophenyl)methyl]pyridin-2-yl]-1-methylsulfonylhydrazine] are 152 to 154 °C and 5 to 50 nM.
The corresponding values for `O=S(=O)(c1ccc(Cl)cc1)C(c1ccncc1)c1cc(F)ccc1F` (centres unmarked) [Example 20, 4-[[(4-Chlorophenyl)sulfonyl]-(2,5-difluorophenyl)methyl]pyridine] are 126 to 127 °C and 50 to 500 nM.
In the case of `Cn1cnc(S(=O)(=O)Nc2cc(C(c3cc(F)ccc3F)S(=O)(=O)c3ccc(Cl)cc3)c(Cl)cn2)c1` (centres unmarked) [Example 268, N-[5-Chloro-4-[(4-chlorophenylsulfonyl)(2,5-difluorophenyl)methyl]pyridin-2-yl]-1-methyl-1H-imidazole-4-sulfonamide], the melting point was in the range of 294 to 296 °C. The IC50 in series [1] was under 5 nM.
On to `O=S(=O)(c1ccc(Cl)cc1)C(c1cc(F)ccc1F)c1cc(NCCN2CCOCC2)ncc1Cl` (centres unmarked) [Example 106, 4-[2-[5-Chloro-4-[(4-chlorophenylsulfonyl)-(2,5-difluorophenyl)methyl]pyridin-2-yl]aminoethyl]morpholine], for which the IC50 in series [1] was under 5 nM.
On the same count and under the same terms, as for `NCC1CN(c2cc(C(c3cc(F)ccc3F)S(=O)(=O)c3ccc(Cl)cc3)c(Cl)cn2)CCO1` (centres unmarked) [Example 114, 2-Aminomethyl-4-[5-chloro-4-[(4-chlorophenylsulfonyl)-(2,5-difluorophenyl)methyl]pyridin-2-yl]morpholine], the figure is 5 to 50 nM; as for `NNc1cc(C(c2cc(F)ccc2F)S(=O)(=O)c2ccc(Cl)cc2)c(Cl)cn1` (centres unmarked) [Example 222, [5-Chloro-4-[(4-chlorophenylsulfonyl)(2,5-difluorophenyl)methyl]pyridin-2-yl]hydrazine], 5 to 50 nM; as for `COC(=O)OCc1ccc(C(c2cc(F)ccc2F)S(=O)(=O)c2ccc(Cl)cc2)nc1` (centres unmarked) [Example 84, [6-(4-Chlorophenylsulfonyl)(2,5-difluorophenyl)methylpyridin-3-yl]methyl methylcarbonate], 50 to 500 nM.
On the same count and under the same terms, as for `CS(=O)(=O)Nc1cc(C(Sc2ccc(Cl)cc2)c2cc(F)ccc2F)c(Cl)cn1` (centres unmarked) [220 (B), N-[5-chloro-4-[(4-chlorophenylthio)(2,5-difluorophenyl)methyl]pyridin-2-yl]methanesulfonamide], the figure is 50 to 500 nM; as for `CNCCN(C)c1cc(C(c2cc(F)ccc2F)S(=O)(=O)c2ccc(Cl)cc2)c(Cl)cn1` (centres unmarked) [Example 109, 5-Chloro-4-[(4-chlorophenylsulfonyl)-(2,5-difluorophenyl)methyl]-2-[N-methyl-N-[2-(methylamino)ethyl]amino]pyridine], 5 to 50 nM; as for `O=S(=O)(c1ccc(Cl)cc1)C(c1cc(F)ccc1F)c1cc(NCC[N+]2([O-])CCOCC2)ncc1Cl` (centres unmarked) [Example 61, 4-[2-[5-Chloro-4-[(4-chlorophenylsulfonyl)-(2,5-difluorophenyl)methyl]pyridin-2-yl]aminoethyl]morpholine-N-oxide], under 5 nM.
As for `O=S(=O)(c1ccc(Cl)cc1)C(c1cc(F)ccc1F)c1cc(Cl)ncc1Cl` (centres unmarked) [Example 57, 2,5-Dichloro-4-[(4-chlorophenylsulfonyl)-(2,5-difluorophenyl)methyl]pyridine 0.5 hydrate], the IC50 in series [1] lay within 5 to 50 nM.
Regarding `COc1c(C(c2cc(F)ccc2F)S(=O)(=O)c2ccc(Cl)cc2)c(=O)oc2ccccc12` (centres unmarked) [23 (Compound A), 3-[[(4-Chlorophenyl)sulfonyl]-(2,5-difluorophenyl)methyl]-4-methoxychromen-2-one], the IC50 in series [1] was 5 to 50 nM.
Turning to `CS(=O)(=O)Nc1cc(C(c2cc(F)ccc2F)[S+]([O-])c2ccc(Cl)cc2)c(Cl)cn1` (centres unmarked) [Example 221, N-[5-Chloro-4-[(4-chlorophenylsulfinyl)(2,5-difluorophenyl)methyl]pyridin-2-yl]methanesulfonamide], the IC50 in series [1] is under 5 nM.
The same measure, in the same setting: the value for `OC1CCN(c2cc(C(Sc3ccc(Cl)cc3)c3cc(F)ccc3F)c(Cl)cn2)CC1` (centres unmarked) [Example 115, 5-Chloro-4-[(4-chlorophenylthio)-(2,5-difluorophenyl)methyl]-2-(4′-hydroxypiperidin-1′-yl)pyridine] was under 5 nM; that for `CS(=O)(=O)NCc1ccc(C(c2cc(F)ccc2F)S(=O)(=O)c2ccc(Cl)cc2)nc1` (centres unmarked) [Example 82, N-[[6-(4-Chlorophenylsulfonyl)(2,5-difluorophenyl)methylpyridin-3-yl]methyl]methanesulfonamide] was 50 to 500 nM.
Same read-out and setting: as for `CN(C)CCS(=O)(=O)Nc1cc(C(c2cc(F)ccc2F)S(=O)(=O)c2ccc(Cl)cc2)c(Cl)cn1` (centres unmarked) [Example 279, N-[5-Chloro-4-[(4-chlorophenylsulfonyl)(2,5-difluorophenyl)methyl]pyridin-2-yl]-2-(dimethylamino)ethanesulfonamide], the figure is under 5 nM.
As to `O=S(=O)(c1ccc(Cl)cc1)C(c1ccncc1)C1CCOCC1` (centres unmarked) [Example 3, 4-[(4-Chlorophenylsulfonyl)(tetrahydropyran-4-yl)methyl]pyridine], the melting point lay in the range of 208 to 209 °C.
The same measure, in the same setting: the value for `COC(=O)CCc1ccc(C(c2cc(F)ccc2F)S(=O)(=O)c2ccc(Cl)cc2)nc1` (centres unmarked) [Example 45, Methyl 3-[6-[(4-chlorophenylsulfonyl)-(2,5-difluorophenyl)methyl]pyridin-3-yl]propionate] was 121 to 123 °C.
In the case of `Cc1cnc(C(=O)O)cc1C(c1cc(F)ccc1F)S(=O)(=O)c1ccc(Cl)cc1` (centres unmarked) [Example 209, 4-[(4-Chlorophenylsulfonyl)(2,5-difluorophenyl)methyl]-5-methylpicolinic acid], the melting point was 105 to 107 °C.
As for `C=CCOc1cccnc1C(c1cc(F)ccc1F)S(=O)(=O)c1ccc(Cl)cc1` (centres unmarked) [Example 18, 3-Allyloxy-2-[[(4-chlorophenyl)sulfonyl]-(2,5-difluorophenyl)methyl]pyridine], the melting point is 119 to 120 °C.
For `O=C(O)CCc1cnc(C(c2cc(F)ccc2F)S(=O)(=O)c2ccc(Cl)cc2)c(F)c1` (centres unmarked) [Example 133, 3-[6-(4-Chlorophenylsulfonyl)(2,5-difluorophenyl)methyl-5-fluoropyridin-3-yl]propionic acid], the melting point lay in the range of 174 to 176 °C.
Same read-out and setting: the value for `COc1cccnc1C(c1cc(F)ccc1F)S(=O)(=O)c1ccc(Cl)cc1` (centres unmarked) [Example 17, 2-[[(4-Chlorophenyl)sulfonyl]-(2,5-difluorophenyl)methyl]-3-methoxypyridine] was 184 to 185 °C.

What is called melting point is the temperature, or range, at which the solid turns liquid.
